In ChEMBL document CHEMBL6153147 (J Med Chem, 2025):
Active and inactive are the calls of the source. The rule behind the calls is not given here.

What was measured:
[1] = molecular target: T1, Serine/threonine-protein kinase PLK1 (Homo sapiens, UniProt P53350); assay: Inhibition of human PLK1 using ATF2 as substrate incubated for 40 mins in presence of [gamma-33P]ATP/Mg acetate by scintillation counting analysis
[2] = molecular target: Serine/threonine-protein kinase PLK2 (Homo sapiens, UniProt Q9NYY3); assay: Inhibition of human PLK2 using ATF2 as substrate incubated for 40 mins in presence of [gamma-33P]ATP/Mg acetate by scintillation counting analysis
Sequence of Serine/threonine-protein kinase PLK2 (Q9NYY3 whole entry): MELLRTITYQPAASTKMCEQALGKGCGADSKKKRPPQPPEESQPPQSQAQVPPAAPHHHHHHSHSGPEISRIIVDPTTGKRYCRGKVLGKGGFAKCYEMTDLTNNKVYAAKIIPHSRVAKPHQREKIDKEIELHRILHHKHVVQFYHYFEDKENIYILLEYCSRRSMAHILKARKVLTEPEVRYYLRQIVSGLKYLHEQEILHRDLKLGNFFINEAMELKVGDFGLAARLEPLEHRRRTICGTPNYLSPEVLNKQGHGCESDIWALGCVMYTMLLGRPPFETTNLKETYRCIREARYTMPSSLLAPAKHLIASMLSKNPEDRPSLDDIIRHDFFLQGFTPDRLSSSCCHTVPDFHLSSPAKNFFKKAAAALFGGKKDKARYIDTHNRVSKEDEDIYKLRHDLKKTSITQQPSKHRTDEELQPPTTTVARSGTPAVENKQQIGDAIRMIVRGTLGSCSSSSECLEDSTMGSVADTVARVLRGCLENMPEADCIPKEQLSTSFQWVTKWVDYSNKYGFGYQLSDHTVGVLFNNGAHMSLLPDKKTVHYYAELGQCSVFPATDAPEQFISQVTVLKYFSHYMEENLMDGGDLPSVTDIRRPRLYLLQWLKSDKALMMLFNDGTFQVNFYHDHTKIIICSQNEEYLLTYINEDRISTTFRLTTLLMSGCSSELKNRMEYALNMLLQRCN

[3] = Selectivity ratio of IC50 for inhibition of human PLK2 using ATF2 as substrate to IC50 for inhibition of human PLK1 using ATF2 as substrate
[4] = molecular target: T1, Serine/threonine-protein kinase PLK1; assay: Inhibition of human PLK1 at 10 uM by kinome selectivity profiling analysis relative to control
[5] = molecular target: Serine/threonine-protein kinase PLK4 (Homo sapiens) (UniProt O00444); assay: Inhibition of human PLK4 assessed as residual activity at 10 uM by kinome selectivity profiling analysis
Sequence of Serine/threonine-protein kinase PLK4 (Homo sapiens) (O00444 whole entry): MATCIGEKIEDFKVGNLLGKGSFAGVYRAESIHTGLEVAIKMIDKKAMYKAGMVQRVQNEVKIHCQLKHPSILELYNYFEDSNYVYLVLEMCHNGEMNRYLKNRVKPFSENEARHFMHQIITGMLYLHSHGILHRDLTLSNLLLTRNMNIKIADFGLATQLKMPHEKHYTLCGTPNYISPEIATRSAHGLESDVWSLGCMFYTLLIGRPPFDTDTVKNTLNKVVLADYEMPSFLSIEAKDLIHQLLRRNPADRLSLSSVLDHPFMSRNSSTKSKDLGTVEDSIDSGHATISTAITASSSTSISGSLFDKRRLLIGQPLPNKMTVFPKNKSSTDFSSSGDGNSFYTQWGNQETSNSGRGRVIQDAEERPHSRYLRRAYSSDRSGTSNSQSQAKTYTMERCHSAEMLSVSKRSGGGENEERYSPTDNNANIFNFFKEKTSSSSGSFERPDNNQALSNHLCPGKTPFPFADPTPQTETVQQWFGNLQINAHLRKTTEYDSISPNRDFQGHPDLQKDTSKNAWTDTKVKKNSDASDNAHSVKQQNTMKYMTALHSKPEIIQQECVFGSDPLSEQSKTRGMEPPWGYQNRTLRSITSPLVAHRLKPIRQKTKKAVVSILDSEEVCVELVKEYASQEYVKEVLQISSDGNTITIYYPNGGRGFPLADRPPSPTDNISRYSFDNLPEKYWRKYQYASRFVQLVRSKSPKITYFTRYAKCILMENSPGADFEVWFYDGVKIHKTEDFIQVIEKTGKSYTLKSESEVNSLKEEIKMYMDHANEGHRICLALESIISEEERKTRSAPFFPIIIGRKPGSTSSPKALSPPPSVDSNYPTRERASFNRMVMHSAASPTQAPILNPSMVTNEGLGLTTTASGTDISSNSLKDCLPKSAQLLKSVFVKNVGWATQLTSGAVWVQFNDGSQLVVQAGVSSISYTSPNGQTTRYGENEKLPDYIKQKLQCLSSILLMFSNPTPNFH

[6] = molecular target: T1, Serine/threonine-protein kinase PLK1; assay: Inhibition of human PLK1 assessed as residual activity at 10 uM by kinome selectivity profiling analysis relative to control
[7] = molecular target: cGMP-dependent protein kinase 2 (Homo sapiens) (UniProt Q13237); assay: Inhibition of human PRKG2 assessed as residual activity at 10 uM by kinome selectivity profiling analysis relative to control
Sequence of cGMP-dependent protein kinase 2 (Homo sapiens) (Q13237 whole entry): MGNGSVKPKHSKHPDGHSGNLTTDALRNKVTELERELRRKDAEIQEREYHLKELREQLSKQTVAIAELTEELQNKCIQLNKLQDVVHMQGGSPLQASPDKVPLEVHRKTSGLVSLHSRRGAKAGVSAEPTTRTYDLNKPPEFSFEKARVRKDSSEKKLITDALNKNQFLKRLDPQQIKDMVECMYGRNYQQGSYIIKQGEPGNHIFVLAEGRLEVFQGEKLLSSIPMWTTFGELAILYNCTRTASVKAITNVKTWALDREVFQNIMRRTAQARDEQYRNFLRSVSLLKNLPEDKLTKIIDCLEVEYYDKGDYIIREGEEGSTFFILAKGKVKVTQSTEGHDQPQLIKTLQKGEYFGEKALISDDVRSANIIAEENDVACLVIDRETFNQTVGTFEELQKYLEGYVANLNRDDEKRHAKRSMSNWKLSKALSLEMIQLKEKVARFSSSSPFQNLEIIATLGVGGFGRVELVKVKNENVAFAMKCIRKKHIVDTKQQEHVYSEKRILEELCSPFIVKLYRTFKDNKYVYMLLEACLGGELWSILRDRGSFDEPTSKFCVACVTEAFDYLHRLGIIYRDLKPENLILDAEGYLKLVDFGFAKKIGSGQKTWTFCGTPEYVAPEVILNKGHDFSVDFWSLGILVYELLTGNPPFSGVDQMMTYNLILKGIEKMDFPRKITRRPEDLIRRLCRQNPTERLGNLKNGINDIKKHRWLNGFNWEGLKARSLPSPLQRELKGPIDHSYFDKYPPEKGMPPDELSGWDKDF

[8] = species on record: Homo sapiens; assay: Inhibition of human ABL assessed as residual activity at 10 uM by kinome selectivity profiling analysis relative to control
[9] = molecular target: Cyclin-dependent kinase 6 (Homo sapiens) (UniProt Q00534); assay: Inhibition of human CDK6 assessed as residual activity at 10 uM by kinome selectivity profiling analysis relative to control
Sequence of Cyclin-dependent kinase 6 (Homo sapiens) (Q00534 whole entry): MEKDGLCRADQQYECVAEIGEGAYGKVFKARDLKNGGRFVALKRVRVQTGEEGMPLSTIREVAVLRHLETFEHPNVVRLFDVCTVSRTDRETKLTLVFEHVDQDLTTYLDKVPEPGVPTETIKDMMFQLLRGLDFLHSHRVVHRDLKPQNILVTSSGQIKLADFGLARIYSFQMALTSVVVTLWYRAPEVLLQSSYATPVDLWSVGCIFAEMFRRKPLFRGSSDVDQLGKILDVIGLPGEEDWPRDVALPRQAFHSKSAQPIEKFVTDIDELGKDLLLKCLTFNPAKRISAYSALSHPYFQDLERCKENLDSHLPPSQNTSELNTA

[10] = Stability of compound in human hepatocytes; format: ADME, cell-based, Hepatocyte
[11] = molecular target: Cytochrome P450 2C19 (Homo sapiens, UniProt P33261); assay: Inhibition of CYP2C19 in human liver microsomes using S-mephenytoin as substrate preincubated with compound followed by substrate addition measured after 10 mins in presence of NADPH by LC-MS/MS analysis; format: ADME, Microsome
Sequence of Cytochrome P450 2C19 (P33261 whole entry): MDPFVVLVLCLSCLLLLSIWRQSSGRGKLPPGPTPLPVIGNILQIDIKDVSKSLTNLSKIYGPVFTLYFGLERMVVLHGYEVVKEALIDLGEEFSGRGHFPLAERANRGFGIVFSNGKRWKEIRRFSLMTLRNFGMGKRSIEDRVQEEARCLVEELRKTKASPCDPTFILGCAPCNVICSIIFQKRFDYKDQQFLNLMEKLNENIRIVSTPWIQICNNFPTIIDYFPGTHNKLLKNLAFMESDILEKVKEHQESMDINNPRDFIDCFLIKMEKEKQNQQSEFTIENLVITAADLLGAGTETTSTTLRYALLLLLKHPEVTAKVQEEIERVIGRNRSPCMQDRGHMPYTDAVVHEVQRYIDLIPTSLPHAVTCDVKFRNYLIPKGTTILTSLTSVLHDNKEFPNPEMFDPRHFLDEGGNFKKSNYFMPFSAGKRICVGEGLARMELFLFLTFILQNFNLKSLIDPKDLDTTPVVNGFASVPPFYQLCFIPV

[12] = molecular target: Cytochrome P450 3A4 (Homo sapiens, UniProt P08684); assay: Inhibition of CYP3A4 in human liver microsomes using midazolam as substrate preincubated with compound followed by substrate addition measured after 5 mins in presence of NADPH by LC-MS/MS analysis; format: ADME, Microsome
Sequence of Cytochrome P450 3A4 (P08684 whole entry): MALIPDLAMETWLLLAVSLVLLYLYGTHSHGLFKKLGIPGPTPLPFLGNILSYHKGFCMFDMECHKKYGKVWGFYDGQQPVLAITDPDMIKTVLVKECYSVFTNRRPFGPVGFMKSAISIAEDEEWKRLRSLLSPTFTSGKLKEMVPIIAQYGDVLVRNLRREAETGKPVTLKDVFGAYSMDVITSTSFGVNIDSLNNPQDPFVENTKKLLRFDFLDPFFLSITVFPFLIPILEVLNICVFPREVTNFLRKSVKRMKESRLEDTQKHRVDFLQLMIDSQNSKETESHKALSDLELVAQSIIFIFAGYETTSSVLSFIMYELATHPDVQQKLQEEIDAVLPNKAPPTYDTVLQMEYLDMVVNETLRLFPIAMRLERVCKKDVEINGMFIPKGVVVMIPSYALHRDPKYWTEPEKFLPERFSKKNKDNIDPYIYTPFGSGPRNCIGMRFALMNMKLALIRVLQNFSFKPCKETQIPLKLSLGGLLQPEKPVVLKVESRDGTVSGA

[13] = molecular target: Cytochrome P450 2D6 (Homo sapiens, UniProt P10635); assay: Inhibition of CYP2D6 in human liver microsomes using dextromethorphan as substrate preincubated with compound followed by substrate addition measured after 10 mins in presence of NADPH by LC-MS/MS analysis; format: ADME, Microsome
Sequence of Cytochrome P450 2D6 (P10635 whole entry): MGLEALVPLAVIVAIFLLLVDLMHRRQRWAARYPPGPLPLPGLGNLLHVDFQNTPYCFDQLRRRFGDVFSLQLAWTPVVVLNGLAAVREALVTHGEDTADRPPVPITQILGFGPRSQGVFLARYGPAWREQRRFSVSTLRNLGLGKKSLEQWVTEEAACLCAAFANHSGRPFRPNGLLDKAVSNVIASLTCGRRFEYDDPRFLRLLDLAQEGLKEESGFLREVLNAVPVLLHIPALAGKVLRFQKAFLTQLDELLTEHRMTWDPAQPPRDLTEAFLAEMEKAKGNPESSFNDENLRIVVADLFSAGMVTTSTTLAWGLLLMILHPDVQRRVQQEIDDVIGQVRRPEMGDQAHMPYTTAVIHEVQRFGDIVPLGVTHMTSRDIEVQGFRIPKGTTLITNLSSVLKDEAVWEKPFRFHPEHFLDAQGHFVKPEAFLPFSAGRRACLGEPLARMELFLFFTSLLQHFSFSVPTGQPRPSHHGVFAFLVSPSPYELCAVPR

[14] = Solubility of compound in 0.01 M PBS at pH 7.4 assessed as fold increase equilibrated for 12 hrs by UV spectrophotometry relative to BI 2536; format: physicochemical; conditions: buffer, pH 7.4, 12 h
[15] = C0 in C57BL/6 mouse at 1 mg/kg, iv measured for 0.5 to 12 htr by LC-MS/MS analysis; format: ADME, organism-based; conditions: in vivo, time 0.5-12 hrs
[16] = Cmax in C57BL/6 mouse at 10 mg/kg, po measured for 0.5 to […] htr by LC-MS/MS analysis; format: ADME, organism-based; conditions: in vivo, time 0.5-12 hrs
[17] = Tmax in C57BL/6 mouse at 10 mg/kg, po measured for 0.5 to 12 htr by LC-MS/MS analysis; format: ADME, organism-based; conditions: in vivo, time 0.5-12 hrs
[18] = Half life in C57BL/6 mouse at 10 mg/kg, po measured for 0.5 to 12 htr by LC-MS/MS analysis; format: ADME, organism-based; conditions: in vivo, time 0.5-12 hrs
[19] = AUC (0 to t) in C57BL/6 mouse at 10 mg/kg, po measured for 0.5 to […] htr by LC-MS/MS analysis; format: ADME, organism-based; conditions: in vivo, time 0.5-12 hrs
[20] = AUC (0 to infinity) in C57BL/6 mouse at 10 mg/kg, po measured for 0.5 to 12 htr by LC-MS/MS analysis; format: ADME, organism-based; conditions: in vivo, time 0.5-12 hrs
[21] = MRT (0 to t) in C57BL/6 mouse at 10 mg/kg, po measured for 0.5 to 12 htr by LC-MS/MS analysis; format: ADME, organism-based; conditions: in vivo, time 0.5-12 hrs
[22] = Oral bioavailability in C57BL/6 mouse at 10 mg/kg measured for 0.5 to […] htr by LC-MS/MS analysis; format: ADME, organism-based; conditions: in vivo, time 0.5-12 hrs
[23] = Metabolic stability in mouse liver microsomes assessed as half life preincubated for 5 mins followed by NADPH addition by LC-MS/MS analysis; format: ADME, Microsome
[24] = Metabolic stability in human liver microsomes assessed as intrinsic clearance preincubated for 5 mins followed by NADPH addition by LC-MS/MS analysis; format: ADME, Microsome; conditions: read-out: CLH
[25] = Metabolic stability in dog liver microsomes assessed as intrinsic clearance preincubated for 5 mins followed by NADPH addition by LC-MS/MS analysis; format: ADME, Canis lupus familiaris, Microsome; conditions: read-out: CLH
[26] = Metabolic stability in human liver microsomes assessed as intrinsic clearance in microsome measured per mg protein preincubated for 5 mins followed by NADPH addition by LC-MS/MS analysis; format: ADME; conditions: read-out: CLH
[27] = Metabolic stability in dog liver microsomes assessed as intrinsic clearance in microsome measured per mg protein preincubated for 5 mins followed by NADPH addition by LC-MS/MS analysis; format: ADME, Canis lupus familiaris; conditions: read-out: CLH
[28] = Toxicity in BALB/c mouse xenografted with human K562 cells assessed as adverse effects at 10 to 20 mg/kg, IG for 11 days treated on every 3 to 4 days; format: organism-based; conditions: in vivo, po, 264 h, dose 10-20 mg/kg, time 11 day
[29] = tested on: HEK-293T; assay: Cytotoxicity against HEK293T cells by CCK8 assay; format: toxicity, cell-based; conditions: human, dose 0.1-30 µM
[30] = Cytotoxicity against HEK293T cells assessed as cell viability at 30 uM by CCK8 assay relative to control; format: toxicity, cell-based, HEK-293T; conditions: human, read-out: Activity
[31] = Effect on mitochondrial membrane integrity in HEK293T cells at 10 uM incubated for 24 hrs by JC-1 dye based analysis; format: toxicity, cell-based; conditions: human, hek-293t
[32] = Acute toxicity in mouse assessed as body weight change at 500 mg/kg, IG qd treated for 7 days; format: organism-based; conditions: in vivo, po, 168 h, time 7 day
[33] = Acute toxicity in mouse assessed as damage in liver at 500 mg/kg, IG qd treated for 7 days by H and E staining based analysis; format: organism-based; conditions: in vivo, po, 168 h, time 7 day
[34] = Acute toxicity in mouse assessed as damage in lung at 500 mg/kg, IG qd treated for 7 days by H and E staining based analysis; format: organism-based; conditions: in vivo, po, 168 h, time 7 day
[35] = tested on: NCI-H460; assay: cells; conditions: Homo sapiens
[36] = tested on: PC-9; assay: cells; conditions: Homo sapiens
[37] = tested on: A549; assay: cells; conditions: Homo sapiens
[38] = tested on: SW-620; assay: cells; conditions: Homo sapiens
[39] = tested on: HL-60; assay: cells; conditions: Homo sapiens
[40] = tested on: CCRF-CEM; assay: cells; conditions: Homo sapiens

T1 sequence (P53350 whole entry): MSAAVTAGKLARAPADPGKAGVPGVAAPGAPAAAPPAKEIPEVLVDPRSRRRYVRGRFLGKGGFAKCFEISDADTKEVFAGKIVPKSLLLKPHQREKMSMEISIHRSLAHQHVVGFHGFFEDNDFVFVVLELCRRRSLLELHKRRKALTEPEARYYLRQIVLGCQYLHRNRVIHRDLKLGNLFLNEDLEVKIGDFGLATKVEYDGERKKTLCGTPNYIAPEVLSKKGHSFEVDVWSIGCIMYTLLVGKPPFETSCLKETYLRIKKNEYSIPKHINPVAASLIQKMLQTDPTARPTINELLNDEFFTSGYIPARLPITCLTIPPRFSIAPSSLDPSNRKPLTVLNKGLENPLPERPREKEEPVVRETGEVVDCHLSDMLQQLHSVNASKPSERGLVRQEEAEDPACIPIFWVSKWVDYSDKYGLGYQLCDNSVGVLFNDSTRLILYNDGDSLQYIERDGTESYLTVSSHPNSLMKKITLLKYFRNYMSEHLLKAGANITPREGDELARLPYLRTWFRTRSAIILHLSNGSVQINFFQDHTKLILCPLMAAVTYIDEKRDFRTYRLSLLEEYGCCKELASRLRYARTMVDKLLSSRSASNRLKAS

Q: Which IC50 [1] does the source give for CC[C@@H]1C(=O)N(C)c2cnc(Nc3cc(N4CCN(C)CC4)cc(Cl)c3OCCCO)nc2N1C1CCCC1 here?
A: 0.02 µM

Q: And the IC50 [2]?
A: > 10 µM

Q: And the ratio [3]?
A: > 601

Q: And the inhibition [4]?
A: 100%

Q: What about the inhibition [5] of the same compound?
A: inactive

Q: And the Activity [6]?
A: -2%

Q: And the Activity [7]?
A: 110%

Q: What about the Activity [8] of the same compound?
A: 108%

Q: What about the Activity [9] of the same compound?
A: 103%

Q: What about the Stability [10] of the same compound?
A: Stable

Q: And the IC50 [11]?
A: 1.9 µM

Q: And the IC50 [12]?
A: > 10 µM

Q: And the IC50 [13]?
A: > 10 µM

Q: What about the “fold change (FC)” value [14] of the same compound?
A: > 2

Q: What about the C0 [15] of the same compound?
A: 328 ng/mL

Q: What about the Cmax [16] of the same compound?
A: 328 ng/mL

Q: What about the Tmax [17] of the same compound?
A: 45 min

Q: What about the half-life [18] of the same compound?
A: 72 min

Q: What about the AUC(0-t) [19] of the same compound?
A: 820 ng·h/mL

Q: What about the AUC(0-inf) [20] of the same compound?
A: 825 ng·h/mL

Q: And the MRT last [21]?
A: 120 min

Q: What about the bioavailability [22] of the same compound?
A: 45%

Q: What about the half-life [23] of the same compound?
A: 16.6 min

Q: What about the CLint scaled [24] of the same compound?
A: 85.6 mL/min/kg

Q: What about the CLint scaled [25] of the same compound?
A: 474 mL/min/kg

Q: And the microsomal CLint [26]?
A: 68.3 µL/min/mg

Q: And the microsomal CLint [27]?
A: 190 µL/min/mg

Q: What about the Activity [28] of the same compound?
A: Non-toxic

Q: And the Activity [29]?
A: Dose-dependent-effect

Q: What about the viability at 30 µM [30] of the same compound?
A: 68%

Q: What about the Activity [31] of the same compound?
A: Non-toxic

Q: What about the Activity [32] of the same compound?
A: Non-toxic

Q: And the Activity [33]?
A: Non-toxic

Q: And the Activity [34]?
A: Non-toxic

Q: And the IC50 [35]?
A: 0.012 µM

Q: What about the IC50 [36] of the same compound?
A: 0.775 µM

Q: And the IC50 [37]?
A: 0.032 µM

Q: And the IC50 [38]?
A: 0.0082 µM

Q: And the IC50 [39]?
A: 0.059 µM

Q: What about the IC50 [40] of the same compound?
A: 0.041 µM
